Values of other authors in US20080292666A1, “Preparation for Preventing or Treating Calcium Deficiency Conditions In Mammals” (priority 2005, published 2008).

Key:
[1] = for effect of oral drenches on blood Ca-concentrations: aqueous solutions or slurries, cows
[2] = 75 g of calcium as paste, oral
[3] = test system: parturient paresis in dairy cows; settings: 120 g calcium as calcium propionate cylinders vs 216 g as oily calcium chloride solution

Row | SMILES | rise of plasma Ca-concentrations after oral CaCl2 compared with i.v. ([1]; 50 g of Ca as CaCl2) | effect of oral drenches on blood Ca-concentrations [1] | total amount administered in 24 h not to be exceeded to avoid severe metabolic acidosis ([1]; oral, 24 h (120 g of Ca)) [g] | persistence of the increase in plasma calcium [2] | rapidity of plasma calcium increase [2] | effectiveness in the prevention of milk fever [3]
1 | [Ca+2].[Cl-].[Cl-] [calcium chloride] | raised plasma Ca-concentrations to the same extent as 4° g. of Ca as CaCl2 given i.v. | increased blood Ca-concentrations more quickly than did Ca-propionate | ≤ 288 | – | – | –
2 | CCC(=O)[O-].CCC(=O)[O-].[Ca+2] [calcium propionate] | – | effects lasted longer | – | sustained for a longer period | did not increase plasma calcium as rapidly as 75° g. calcium as CaCl2 | as effective in the prevention of milk fever as was treatment with calcium chloride
